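Grown in 96-well plates, cells were treated for 48 hours with each compound at five concentrations. Insufficient inhibition: endpoint recorded as highest concentration tested. GI50 marks 50% less growth.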 Active and inactive are the calls of the source. Cut-off read from the data, not from the text of the source: active = GI50 up to about 1.1 µM and inactive = higher.
What was measured:
Test in all cases: growth of human tumour cells (NCI), 48 h
[1] = system: 786-0
[2] = system: CCRF-CEM
[3] = system: HCC 2998
[4] = system: HOP-62
[5] = system: HT-29
[6] = system: K562
[7] = system: LOX IMVI
[8] = system: MDA-N
[9] = system: NCI-H226
[10] = system: NCI-H522
[11] = system: NCI/ADR-RES
[12] = system: SF-268
[13] = system: SF-539
[14] = system: SK-MEL-28
[15] = system: SN12C
[16] = system: SR
[17] = system: SW-620
[18] = system: COLO 205
[19] = system: EKVX
[20] = system: RXF 393

Measured: GI50

N#Cc1c(-c2ccccc2)c(C#N)c(=S)n(C2OCC(O)C(O)C2O)c1N (stereo not drawn)
inactive: [1] > 100 µM | [2] > 100 µM | [3] > 100 µM | [4] > 100 µM | [5] > 100 µM | [6] > 100 µM | [7] > 100 µM | [8] > 100 µM | [9] > 100 µM | [10] > 100 µM | [11] > 100 µM | [12] > 100 µM | [13] > 100 µM | [14] > 100 µM | [15] > 100 µM | [16] > 100 µM | [17] > 100 µM

COC(=O)[C@]1(C)CCCC2(C)C3=C(CCC21)CC1(CC3)SCCS1 (stereo partly drawn)
inactive: [1] > 10 µM | [2] > 10 µM | [18] > 10 µM | [19] > 10 µM | [3] > 10 µM | [4] > 10 µM | [5] > 10 µM | [6] > 10 µM | [8] > 10 µM | [10] > 10 µM | [11] > 10 µM | [12] > 10 µM | [13] > 10 µM | [14] > 10 µM | [15] > 10 µM | [16] > 10 µM | [17] > 10 µM

CC(=O)OC12c3ccccc3C(c3ccccc31)C1C(=O)N(c3ccccc3O)C(=O)C12 (stereo not drawn)
inactive: [1] > 100 µM | [2] 57.3 µM | [18] > 100 µM | [19] > 100 µM | [3] > 100 µM | [4] 96.4 µM | [5] 70.5 µM | [6] > 100 µM | [7] > 100 µM | [8] > 100 µM | [9] > 100 µM | [11] > 100 µM | [20] > 100 µM | [12] 80.5 µM | [13] > 100 µM | [14] > 100 µM | [15] > 100 µM | [16] > 100 µM | [17] > 100 µM

O=C(O)C1CC(O)CN1 (stereo not drawn)
inactive: [1] > 100 µM | [2] > 100 µM | [18] > 100 µM | [19] > 100 µM | [3] > 100 µM | [4] > 100 µM | [5] > 100 µM | [6] > 100 µM | [7] > 100 µM | [8] > 100 µM | [9] > 100 µM | [11] > 100 µM | [20] > 100 µM | [12] > 100 µM | [13] > 100 µM | [14] > 100 µM | [15] > 100 µM | [16] > 100 µM | [17] > 100 µM

O=c1c2ccccc2[nH]c2c(Cl)cc(Cl)c(N3CCCCC3)c12
inactive: [1] > 10 µM | [2] > 10 µM | [18] 37.8 µM | [19] 28.9 µM | [3] 31.9 µM | [4] 34 µM | [5] 16 µM | [6] > 10 µM | [7] 41.6 µM | [8] 24.3 µM | [9] 23.7 µM | [10] 22.1 µM | [11] 25.6 µM | [13] 21.9 µM | [14] 58.5 µM | [15] 22.1 µM | [16] 36.5 µM | [17] 35.4 µM

c1ccc2c(c1)CC1COc3ccccc3C1O2 (stereo not drawn)
inactive: [1] 50.7 µM | [2] 73.6 µM | [18] > 100 µM | [19] 48.3 µM | [3] 42.3 µM | [4] 56.6 µM | [5] 33.4 µM | [6] > 100 µM | [7] 58.7 µM | [8] 38 µM | [9] > 100 µM | [10] 57.4 µM | [11] 47.8 µM | [12] > 100 µM | [13] > 100 µM | [15] 67.5 µM | [16] 88.1 µM | [17] 46.8 µM

From ChEMBL document CHEMBL1201862, “PubChem BioAssay data set” (2004)
